The results in this text go back to patent US12171229B2, “Heteroaryl-triazole and heteroaryl-tetrazole compounds as pesticides” (BAYER AKTIENGESELLSCHAFT, priority 2018, dated 2024).

Structures are written as SMILES.

Holding throughout (format): in vivo
The test system of experiment [1] is Diabrotica balteata. Briefly: Diabrotica balteata spray test. Particulars: Diabrotica balteata, in Triticum aestivum, 168 h, after 7 days, larvae on wheat seeds, read-out: efficacy (seedlings grown up); for pest or weed control at 80 µg/disc, 250 g/ha: 80 μg/well (=250 g/ha); for pest or weed control at 160 µg/disc, 500 g/ha: 160 μg/well (=500 g/ha). An outline of the steps:
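Scoring at 7 days compares seedling growth with untreated, uninfested controls (100% = equal growth, 0% = none grown). Wheat seedlings germinated 1 day on agar, 5 per well, received a spray of test solution made in 1000 ppm emulsifier water. Each unit then received 10–20 beetle larvae.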

For experiment [2], the system named is Myzus persicae. Nature of the experiment: Myzus persicae oral test. Particulars: 120 h, after 5 days. An outline of the steps: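 Aphid mortality (%) was recorded 5 days after a mixed Myzus persicae population began sucking, through parafilm, on compound solutions (acetone stock diluted with water) combined with sugar-supplemented IPL41 medium.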
For experiment [3], the system named is Nezara viridula. Nature of the experiment: Nezara viridula spray test. Particulars: 96 h, after 4 days, larvae on barley plants. The procedure, abridged: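 Mortality (%) was assessed at day 4, from 0% (no bugs dead) to 100% (all dead). The spray solution was compound diluted to test concentration in water with 1000 ppm emulsifier and applied to barley carrying southern green stink bug larvae.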

For experiment [4], the system named is Phaedon cochleariae. Briefly: Phaedon cochleariae spray test. Particulars: foliar, 168 h, after 7 days, larvae on Chinese cabbage leaf disks. Here is the method:
Phaedon Cochleariae—Spray Test
(§1) To produce a suitable preparation of active compound, 1 part by weight of active compound is mixed with the stated amount of solvents and is diluted with water, containing an emulsifier concentration of 1000 ppm, to the desired concentration. Further test concentrations are prepared by dilution with emulsifier containing water.
Chinese cabbage (Brassica pekinensis) leaf disks are sprayed with a preparation of the active ingredient of the desired concentration. Once dry, the leaf disks are infested with mustard beetle larvae (Phaedon cochleariae).
After 7 days mortality in % is determined. 100% means all beetle larvae have been killed and 0% means none of the beetle larvae have been killed.

Experiment [5] deals with Spodoptera frugiperda. Nature of the experiment: Spodoptera frugiperda spray test. Particulars: 168 h, after 7 days, larvae on maize leaf sections. An outline of the steps: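 Seven-day percent mortality of larvae feeding on Zea mays leaf sections sprayed with test compound. Dilutions were made in water holding 1000 ppm emulsifier.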
Experiment [6] deals with Ctenocephalides felis. Briefly: Ctenocephalides felis in-vitro contact test, adult cat flea. Particulars: 5 μg/cm^2 (=500 g/ha), after 48 hours, adult cat fleas, read-out: efficacy (fleas dead or moribund). An outline of the steps: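 Compound in acetone coated onto inner walls of glass tubes, e.g. 900 ppm giving 5 μg/cm². After drying, 5–10 adult C. felis added per tube and held at room temperature. At 48 h, fleas unable to escape a 45–50 °C heating plate within 5 min scored dead/moribund, giving % efficacy.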

For experiment [7], the system named is Boophilus microplus. Briefly: Boophilus microplus injection test. Particulars: Rhipicephalus microplus, 168 h; 20 μg/animal injected into the abdomen; adult engorged female ticks; egg deposition after 7 days; read-out: efficacy (infertile eggs). An outline of the steps: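 Efficacy, from 0% (all eggs fertile) to 100% (all infertile), was scored on eggs laid by five engorged adult females. Each female was injected intra-abdominally with 1 μl of compound solution in DMSO. Fertile egg laying was checked at 7 days, with uncertain eggs kept until hatching at about 42 days.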

The subject of experiment [8] is Ctenocephalides felis. Nature of the experiment: Ctenocephalides felis oral test. Particulars: 48 h, 100 ppm in cattle blood, after 2 days, adult unfed cat fleas. An outline of the steps:
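Compound dissolved in DMSO and diluted in cattle blood to test concentration, offered to ~20 unfed adult fleas via a parafilm-sealed blood chamber held at 37° C (fleas at room temperature). Kill recorded at 2 days as % mortality.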

Experiment [9] relates to Tetranychus urticae. Briefly: Tetranychus urticae spray test (OP-resistant). Particulars: foliar, 144 h, after 6 days, French bean leaf disks. The method, then:
Tetranychus urticae—Spray Test (OP-Resistant)
as §1
French bean (Phaseolus vulgaris) leaf disks infected with all instars of the two spotted spidermite (Tetranychus urticae), are sprayed with a preparation of the active ingredient of the desired concentration.
After 6 days mortality in % is determined. 100% means all spider mites have been killed and 0% means none of the spider mites have been killed.

Experiment [10] concerns Rhipicephalus sanguineus. Briefly: Rhipicephalus sanguineus in-vitro contact test, adult brown dog ticks. Particulars: 5 μg/cm^2 (=500 g/ha), after 48 hours, read-out: efficacy (ticks dead or moribund). The method, then: Rhipicephalus Sanguineus—In-Vitro Contact Tests with Adult Brown Doe Ticks
9 mg compound is solved in 1 ml acetone and diluted with acetone to the desired concentration. 250 μl of the test solution is filled in 25 ml glass test tubes and homogeneously distributed on the inner walls by rotation and tilting on a shaking device (2 h at 30 rpm). With a compound concentration of 900 ppm, an inner surface of 44.7 cm^2 and a homogeneous distribution, a dose of 5 μg/cm^2 is achieved.
After the solvent has evaporated, each test tube is filled with 5-10 adult brown dog ticks (Rhipicephalus sanguineus), closed with a perforated lid and incubated in a lying position at room temperature and relative humidity. After 48 hours efficacy is determined. The ticks are patted on the ground of the tubes and are incubated on a heating plate at 45-50° C. for at most 5 minutes. Immotile or uncoordinated moving ticks, which are not able to escape the heat by climbing upwards, are marked as dead or moribund.
An efficacy of 100% means all ticks are dead or moribund; 0% means no ticks are dead or moribund.

Experiment [11] concerns Meloidogyne incognita. Nature of the experiment: Meloidogyne incognita test. Particulars: 20 ppm; after 14 days; salad seedlings. The method, then: Meloidogyne incognita—Test Solvent: 125.0 parts by weight of acetone To produce a suitable preparation of active compound, 1 part by weight of active compound is mixed with the stated amount of solvent, and the concentrate is diluted with water to the desired concentration. Vessels are filled with sand, a solution of the active ingredient, a suspension containing eggs and larvae of the southern root-knot nematode (Meloidogyne incognita) and salad seeds. The salad seeds germinate and the seedlings grow. Galls develop in the roots. After 14 days the nematicidal activity is determined on the basis of the percentage of gall formation. 100% means no galls were found and 0% means the number of galls found on the roots of the treated plants was equal to that in untreated control plants.

Experiment [12] has as its system Aedes aegypti strain MONHEIM. Briefly: Aedes aegypti test (AEDSAE surface treatment & contact assay). Particulars: 24 hours after contact, read-out: efficacy (mortality); for mortality at 4 mg/m2: surface concentration 4 mg/m^2, exposure 30 minutes; for mortality at 20 mg/m2: surface concentration 20 mg/m^2, exposure 30 minutes. An outline of the steps:
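Compound dissolved in acetone (2 mg/ml) with 2000 ppm rapeseed oil methyl ester, applied to glazed tile and dried; adult strain MONHEIM mosquitoes exposed 30 minutes. Percent mortality scored 24 hours after contact.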

Experiment [13] relates to Musca domestica strain WHO-N. Briefly: Musca domestica test (MUSCDO surface treatment & contact assay). Particulars: 24 hours after contact, read-out: efficacy (mortality); for mortality at 20 mg/m2: surface concentration 20 mg/m^2, exposure 30 minutes. The method, then:
Musca domestica test (MUSCDO surface treatment & contact assay)
(§2) Solvent: Aceton+2000 ppm rapeseed oil methyl ester (RME)
In order to produce a sufficient, active ingredient containing solution it is necessary to solve the test compound in the solvent-mix (acetone at 2 mg/ml/RME 2000 ppm). This solution is pipetted onto a glazed tile and after evaporation of the acetone, adult flies of the species Musca domestica strain WHO-N are placed onto the dried surface. The exposure time is 30 minutes.
Mortality in percent (%) is determined 24 hours after contact of the insects to the treated surface. 100% morality means that all tested insects are dead, whereas 0% means that no insect died.

Experiment [14] relates to Culex quinquefasciatus strain P00. Briefly: Culex quinquefasciatus test (CULXFA surface treatment & contact assay). Particulars: 24 hours after contact, read-out: efficacy (mortality). The procedure, abridged:
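Compound dissolved in acetone (2 mg/ml) with 2000 ppm rapeseed oil methyl ester, applied to glazed tile and dried; adult C. quinquefasciatus strain P00 exposed to surface for 30 minutes. Mortality (%) scored 24 hours after contact.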

Experiment [15] concerns Blattella germanica strain PAULINIA
Nature of the experiment: whole plant or invertebrate. Particulars: read-out: efficacy (mortality). Here is the method: Blattella Germanica Test (BLTTGE Surface Treatment & Contact Assay)
as §2
In order to produce a sufficient, active ingredient containing solution it is necessary to solve the test compound in the solvent-mix (acetone at 2 mg/ml/RME 2000 ppm). This solution is pipetted onto a glazed tile and after evaporation of the acetone, adult animals of the species Blattella germanica strain PAULINIA are placed onto the dried surface. The exposure time is 30 minutes.
Mortality in percent (%) is determined 24 hours after contact of the insects to the treated surface. 100% mortality means that all tested insects are dead, whereas 0% means that no insect died.

The mark [16] stands for this setting: surface concentration 4 mg/m^2, exposure 30 minutes.

By mortality is commonly meant the share of the test organisms that died. In the case of `CC(c1ncnn1-c1ncc(C#N)cn1)N(CC1CC1)C(=O)c1cc(Cl)cc(C(F)(F)F)c1` (stereo not shown) [Example I-008], in experiment [1], the pest or weed control at 80 µg/disc, 250 g/ha is 100% and the pest or weed control at 160 µg/disc, 500 g/ha amounted to 100%. The mortality at 20 ppm in experiment [2] came out at 100%. In [3], the mortality at 100 g/ha was found to be 90% and the mortality at 500 g/ha was found to be 90%. Besides, in experiment [4], the mortality at 500 g/ha worked out at 100%. In [5], the mortality at 100 g/ha was found to be 100% and the mortality at 500 g/ha came to 100%.

As for `CC(c1ncnn1-c1nccs1)N(CC1CC1)C(=O)c1cc(Cl)cc(C(F)(F)F)c1` (stereo not shown) [Example I-003], in experiment [6], the pest or weed control at 5 µg/cm2 turned out to be 100%. The pest or weed control at 0.02 mg in experiment [7] stood at 100%. This molecule also registered a mortality at 100 ppm in experiment [8] of 100%. In addition, the pest or weed control at 80 µg/disc, 250 g/ha in experiment [1] worked out at 100%. In experiment [1], the pest or weed control at 160 µg/disc, 500 g/ha was 100%. Further, in experiment [2], the mortality at 20 ppm was 90%. Further, the results for the mortality at 500 g/ha in experiment [4], in experiment [5] and in experiment [9] were 100%, 100% and 90%, respectively.

`C[C@H](NC(=O)c1cc(Cl)cc(C(F)(F)F)c1)c1ncnn1-c1ncc(C#N)cn1` [Example I-010]: the pest or weed control at 5 µg/cm2 in experiment [6] and in experiment [10] was 100% in each case. Besides, the pest or weed control at 0.02 mg in experiment [7] turned out to be 100%. Also, in experiment [11], the “nematicidal activity (gall formation)” value is given as 100%. This molecule also showed a mortality at 4 ppm in [2] (4 ppm) of 100%. The mortality at 100 g/ha in experiment [3] and in experiment [5] was 100% throughout. The mortality at 500 g/ha in experiment [3] and in [5] was 100% in each case. In experiment [12], the mortality at 4 mg/m2 was 90 to 100%. Also, the mortality at 20 mg/m2 in experiment [12] and in [13] was 90 to 100% throughout.

Consider `CC(c1ncnn1-c1nc2ccccn2n1)N(CC1CC1)C(=O)c1cc(Cl)cc(C(F)(F)F)c1` (stereo not shown) [Example I-005], for which the pest or weed control at 0.02 mg in experiment [7] came out at 100%. Besides, the mortality at 100 ppm in experiment [8] was 100%. Also, the pest or weed control at 80 µg/disc, 250 g/ha in experiment [1] was determined as 100%. The pest or weed control at 160 µg/disc, 500 g/ha in experiment [1] amounted to 100%. Moreover, the mortality at 500 g/ha in experiment [3], in experiment [4] and in experiment [5] was 100% throughout.

Turning to `CC(c1ncnn1-c1ccn(C)n1)N(CC1CC1)C(=O)c1cc(Cl)cc(C(F)(F)F)c1` (stereo not shown) [Example I-006], the pest or weed control at 0.02 mg in experiment [7] amounted to 100%. The molecule also yielded a mortality at 100 ppm in experiment [8] of 100%. In [1], the pest or weed control at 80 µg/disc, 250 g/ha was 100%. The pest or weed control at 160 µg/disc, 500 g/ha in experiment [1] is 100%. In [2], this molecule registered a mortality at 20 ppm of 100%. Besides, the mortality at 500 g/ha in experiment [4] and in experiment [5] was 100% each time.

Regarding `COc1cc(C)nc(-n2ncnc2C(C)N(CC2CC2)C(=O)c2cc(Cl)cc(C(F)(F)F)c2)n1` (stereo not shown) [Example I-001], the pest or weed control at 160 µg/disc, 500 g/ha in experiment [1] was determined as 100%. In experiment [11], the “nematicidal activity (gall formation)” value came out at 100%.

In the case of `Cc1cc(C)nc(-n2ncnc2C(C)N(CC2CC2)C(=O)c2cc(Cl)cc(C(F)(F)F)c2)n1` (stereo not shown) [Example I-002, 3-Chloro-N-(cyclopropylmethyl)-N-{1-[1-(4,6-dimethylpyrimidin-2-yl)-1H-1,2,4-triazol-5-yl]ethyl}-5-(trifluoromethyl)benzamide], the “nematicidal activity (gall formation)” value in experiment [11] was 90%.

For `C[C@H](NC(=O)c1cc(Cl)cc(C(F)(F)F)c1)c1ncnn1-c1ncc(OC(F)(F)F)cn1` [Example I-011], the pest or weed control at 5 µg/cm2 in experiment [6] was 100%. Also, the pest or weed control at 0.02 mg in experiment [7] is 100%. For the same molecule, the mortality at 100 ppm in experiment [8] is 100%. Further, the pest or weed control at 80 µg/disc, 250 g/ha in [1] was found to be 100%. Besides, the pest or weed control at 160 µg/disc, 500 g/ha in [1] came to 100%. Moreover, the mortality at 500 g/ha in experiment [3] and in experiment [5] was 100% each time. Moreover, in [5], the mortality at 100 g/ha turned out to be 100%. The mortality at 4 mg/m2 in experiment [12], in experiment [14] (setting [16]) and in experiment [13] (setting [16]) was 90 to 100% throughout. Also, the mortality at 20 mg/m2 lay within 90 to 100% in experiment [12]; 90 to 100% in [14] (surface concentration 20 mg/m^2, exposure 30 minutes); 90 to 100% in experiment [13]; 80 to 100% in experiment [15].
